Assay results taken from paper PMC5962642, “Dynamic imaging of adaptive stress response pathway activation for prediction of drug induced liver injury” (Archives of Toxicology, 2018).
“Also recorded” adds a separate entry of the source.

Columns and labels:
[1] = system: ICAM1-GFP (NF-κB-mediated inflammatory signaling); test: HepG2 ICAM1-GFP BAC reporter, TNFα-induced, live cell confocal imaging; assay type: cell-based, Human; details: for modulation of TNFα-induced ICAM1-GFP response: HepG2 BAC-GFP, 8 h compound then TNFα 10 ng/mL, 24 h live imaging, 1-100 C-max
Method: Human hepatoma HepG2 cells were acquired from ATCC (clone HB8065). HepG2 Srxn1, DDIT3 (CHOP), CDKN1A (p21) and ICAM1 BAC GFP reporter cell lines were previously established and characterized (Wink et al. [2017]). […] The cell lines were used between passage 5 and 25. For live cell imaging, the cells were seeded in Greiner black μ-clear 384 wells plates, at 8000 cells per well. […] All imaging was similar as previously described^5. […] Directly after TNFα treatment the live cell imaging was started. Quantitative image analysis was performed with CellProfiler version 2.1.1 ([…] et al. [2011]) with an in house developed CellProfiler module implementing the watershed masked algorithm for segmentation (Yan and Verbeek [2012]; Wink et al. [2017]). Image analysis results were stored as HDF5 files. Data analysis, quality control and graphics were performed using the in house developed R package h5CellProfiler (manuscript in preparation). For each reporter hourly intensity levels of the GFP signal, the nuclear Hoechst33342 intensity levels and at 24 h the PI staining were measured at the single cell level. In addition, cell numbers, nuclei size and cell motility were measured. GFP intensity cell population means were calculated. In addition, for each plate the cell population mean GFP intensity of the DMSO treated cells was calculated to determine background control values. Per plate, the single cells that had values above the 2X mean, 3X mean were counted resulting in GFP positive fraction measures. For ICAM1, the background control values consisted of DMSO conditions treated with TNFα, and the single cells with values above, as well as below background values were counted. […] Linear regression was applied with respect to time to quantify treatment effects on a plate-to-plate basis to quantify cell speed, nuclear size, Hoechst nuclear intensity and cell numbers. […] The maximum values over time of the scaled intensity levels and positive GFP fractions were selected for the concentration response curves. These values were fit to a four parameter log-logistic model using the drc package (Ritz et al. [2015]). BMC values were calculated as the concentration at which + 0.25 (and - 0.25 for ICAM1) absolute increase from the initial response values occurred (Fig. 5a).

[2] = ref livertox.nih.gov database; cited from earlier work
[3] = ref Chen et al. [2016], cited from earlier work
[4] = C-max obtained from FDA or literature; ref per compound (FDA, Dailymed, Xu, O’Brien, Khetani, Regenthal, Gustafsson, Dawson, Ogutu, Patel, Schmidt, Ravic, Keisu, Hu, Wagner); cited from earlier work
[5] = system: CHOP-GFP (ER stress/UPR response); test: HepG2 CHOP-GFP BAC reporter, live cell confocal imaging (ER stress/UPR); assay type: cell-based, Human; details: HepG2 BAC-GFP, 24 h live imaging, 1-100 C-max
Method: Image analysis results were stored as HDF5 files. […] For each reporter hourly intensity levels of the GFP signal, the nuclear Hoechst33342 intensity levels and at 24 h the PI staining were measured at the single cell level. In addition, cell numbers, nuclei size and cell motility were measured.
The maximum values over time of the scaled intensity levels and positive GFP fractions were selected for the concentration response curves. […] BMC values were calculated as the concentration at which + 0.25 (and − 0.25 for ICAM1) absolute increase from the initial response values occurred (Fig. 5a).

[6] = system: Srxn1-GFP (oxidative stress); test: HepG2 Srxn1-GFP BAC reporter, live cell confocal imaging (oxidative stress); assay type: cell-based, Human; details: HepG2 BAC-GFP, 24 h live imaging, 1-100 C-max
Method: (§1) Human hepatoma HepG2 cells were acquired from ATCC (clone HB8065). HepG2 Srxn1, DDIT3 (CHOP), CDKN1A (p21) and ICAM1 BAC GFP reporter cell lines were previously established and characterized (Wink et al. [2017]). HepG2 BAC GFP reporters were maintained and exposed to drugs in DMEM high glucose supplemented with 10% (v/v) FBS, 25 U/mL penicillin and 25 µg/mL streptomycin. The cell lines were used between passage 5 and 25. For live cell imaging, the cells were seeded in Greiner black µ-clear 384 wells plates, at 8000 cells per well.
Accumulation of GFP levels, propodium iodide (PI) and Hoechst staining was monitored using a Nikon TiE2000 confocal laser microscope (lasers 540, 488 and 408 nm), equipped with an automated stage and perfect focus system at 37 °C with humidified atmosphere and 5% CO2/air mixture. All imaging was similar as previously described^5. Each 384-well plate contained one reporter cell line, which was exposed to all the compounds used in the screen at one certain concentration (1, 5, 10, 50 or 100 Cmax); for each concentration at least two replicates were imaged per reporter cell line. For the ICAM1-GFP reporter experiments, cells were first exposed for 8 h to compound only; next, TNFα was added to all wells, up to a final concentration of 10 ng/mL. Directly after TNFα treatment the live cell imaging was started.
(§2) Quantitative image analysis was performed with CellProfiler version 2.1.1 (Kamentsky et al. [2011]) with an in house developed CellProfiler module implementing the watershed masked algorithm for segmentation (Yan and Verbeek [2012]; Wink et al. [2017]). Image analysis results were stored as HDF5 files. Data analysis, quality control and graphics were performed using the in house developed R package h5CellProfiler (manuscript in preparation). For each reporter hourly intensity levels of the GFP signal, the nuclear Hoechst33342 intensity levels and at 24 h the PI staining were measured at the single cell level. In addition, cell numbers, nuclei size and cell motility were measured.
(§3) GFP intensity cell population means were calculated. In addition, for each plate the cell population mean GFP intensity of the DMSO treated cells was calculated to determine background control values. Per plate, the single cells that had values above the 2X mean, 3X mean were counted resulting in GFP positive fraction measures. For ICAM1, the background control values consisted of DMSO conditions treated with TNFα, and the single cells with values above, as well as below background values were counted. Due to the non-symmetric distribution of ICAM1 cell population GFP intensities, the interquartile range (IQR) was used to count the number of cells 1.5, 2 and 3 times above and below the TNFα IQR control values (Supplemental Fig. 1).
The maximum values over time of the scaled intensity levels and positive GFP fractions were selected for the concentration response curves. These values were fit to a four parameter log-logistic model using the drc package (Ritz et al. [2015]). BMC values were calculated as the concentration at which + 0.25 (and − 0.25 for ICAM1) absolute increase from the initial response values occurred (Fig. 5a).

[7] = system: p21-GFP (p53-mediated DNA damage-related response); test: HepG2 p21-GFP BAC reporter, live cell confocal imaging (DNA damage); assay type: cell-based, Human; details: 24 h live imaging, 1-100 C-max
Method: as §1
Accumulation of GFP levels, propodium iodide (PI) and Hoechst staining was monitored using a Nikon TiE2000 confocal laser microscope (lasers 540, 488 and 408 nm), equipped with an automated stage and perfect focus system at 37 °C with humidified atmosphere and 5% CO2/air mixture. All imaging was similar as previously described^5. […]
as §2, with “Image analysis results were stored as HDF5 files. Data analysis, quality control and graphics were performed using the in house developed R package h5CellProfiler (manuscript in preparation).” left out
as §3, with “Due to the non-symmetric distribution of ICAM1 cell population GFP intensities, the interquartile range (IQR) was used to count the number of cells 1.5, 2 and 3 times above and below the TNFα IQR control values (Supplemental Fig. 1).” left out

For Sc1ncnc2nc[nH]c12 [Mercaptopurine], which “modulation of TNFα-induced ICAM1-GFP response” value [1] is on record?
Its value is “increased”.

What about the “modulation of TNFα-induced ICAM1-GFP response” value ([1]; listed as mercaptopurine) of the same molecule?
The value was “relatively strong activation; also recorded: mild Srxn1-GFP and ICAM1-GFP activation”.

What about the “point-of-departure (PoD) for ICAM-GFP response relative to onset of SRXN1-GFP response” value ([1]; peak response, concentration series 1-100 C-max) of the same molecule?
The value was “at a lower C-max”.

What about the “Metab (metabolic potential)” value [2] of the same molecule?
Its value is “YES”.

And the “DILI con. (DILI-concern labeling)” value ([3]; FDA DILI labeling)?
Its value is “Most-DC”.

What about the “Hepa. (hepatotoxicity class)” value ([3]; FDA labeling in eight classes of hepatotoxicity) of the same molecule?
Its value is 8.

What about the Cmax [4] of the same molecule?
Its Cmax is 480 nM.

What about the CHOP-GFP reporter response [5] of the same molecule?
Its CHOP-GFP reporter response is “increased”.

And the Srxn1-GFP reporter response [6]?
The Srxn1-GFP reporter response was “increased”.

What about the Srxn1-GFP reporter response ([6]; listed as mercaptopurine) of the same molecule?
Its Srxn1-GFP reporter response is “relatively strong activation; also recorded: mild Srxn1-GFP and ICAM1-GFP activation”.

What about the p21-GFP reporter response [7] of the same molecule?
The p21-GFP reporter response was “increased”.
